Data as given in patent US9682938B2, “Pyrazolone derivatives as nitroxyl donors” (Cardioxyl Pharmaceuticals, Inc., priority 2014, dated 2017).

Key:
Type in all cases: in vitro ADME
[1] = In vitro plasma stability, dog plasma; settings: male, pH 7.4, 5 μM, 37° C., sampling 0-360 minutes, read-out: T1/2 Dog
Procedure: (§1) Certain compounds from Table 1 were tested for their stability in plasma. The assay system comprised plasma from rat, dog or human (at least 3 donors, male, pooled) at pH 7.4, and (ii) an anticoagulant (sodium heparin or sodium citrate). Each test compound (5 μM) was incubated in plasma at 37° C. on a THERMOMIXER® with shaking. Three samples (n=3) were taken at each of seven sampling time points: 0, 10, 30, 60, 90, 180 and 360 minutes. The samples were immediately combined with 3 volumes (i.e., 3 times the volume of plasma) of acetonitrile containing 1% formic acid and an internal standard to terminate the reaction. AB SCIEX API 3000 LC-MS/MS analysis of the test compounds was performed without a standard curve. Plasma half-lives (T1/2) of the test compounds were determined from graphs of the percent remaining values using the peak area response ratio.

[2] = In vitro plasma stability, rat plasma; settings: male, pH 7.4, 5 μM, 37° C., sampling 0-360 minutes, read-out: T1/2 Rat
Procedure: as §1

[3] = In vitro plasma stability, human plasma; settings: male, pH 7.4, 5 μM, 37° C., sampling 0-360 minutes, read-out: T1/2 Human
Procedure: as §1

Structure (SMILES) | half-life at 5 μM [1] [min] | half-life at 5 μM [2] [min] | half-life at 5 μM [3] [min]
CC(C)N1N=C(c2ccccc2F)C(C)(NO)C1=O (stereo not drawn) [Compound 26, 5-(2-fluorophenyl)-4-(hydroxyamino)-2-iso-propyl-4-methyl-2,4-dihydro-3H-pyrazol-3-one] | 65 | 42 | 45
CO/N=C(\C)C1(NO)C(=O)N(c2ccccc2)N=C1C(C)(C)C (stereo not drawn) [Compound 18, 5-(tert-butyl)-4-(hydroxyamino)-4-(1-(methoxyimino)ethyl)-2-phenyl-2,4-dihydro-3H-pyrazol-3-one] | 13 | 17 | 26
CN1N=C(c2cccc(C(F)(F)F)c2)C(C)(NO)C1=O (stereo not drawn) [Compound 22, 4-(hydroxyamino)-2,4-dimethyl-5-(3-(trifluoromethyl)phenyl)-2,4-dihydro-3H-pyrazol-3-one] | 114 | 44 | 55
COc1ccc(C2=NN(C)C(=O)C2(C)NO)cc1F (stereo not drawn) [Compound 19, 5-(3-fluoro-4-methoxyphenyl)-4-(hydroxyamino)-2,4-dimethyl-2,4-dihydro-3H-pyrazol-3-one] | 95 | 90 | 163
CC1=NN(C)C(=O)C1(NO)c1ccc(S(C)(=O)=O)cc1 (stereo not drawn) [Compound 37, 4-(hydroxyamino)-2,5-dimethyl-4-(4-(methylsulfonyl)phenyl)-2,4-dihydro-3H-pyrazol-3-one] | 3 | 5 | 8
CC1(NO)C(=O)N(c2ccc(Br)cc2)N=C1c1ccccc1Cl (stereo not drawn) [Compound 44, 1-(4-bromophenyl)-3-(2-chlorophenyl)-4-(hydroxyamino)-4-methyl-1H-pyrazol-5(4H)-one] | 26 | – | –
CO/N=C(\C)C1(NO)C(=O)N(C)N=C1C1CC1 (stereo not drawn) [Compound 20, 5-cyclopropyl-4-(hydroxyamino)-4-(1-(methoxyimino)ethyl)-2-methyl-2,4-dihydro-3H-pyrazol-3-one] | 20 | – | –
CC1=NN(c2ccc(Br)cc2)C(=O)C1(NO)c1ccccc1 (stereo not drawn) [Compound 47, 1-(4-bromophenyl)-4-(hydroxyamino)-3-methyl-4-phenyl-1H-pyrazol-5(4H)-one] | 11 | – | –
CO/N=C(\C)C1(NO)C(=O)N(C(C)C)N=C1C(C)(C)C (stereo not drawn) [Compound 28, 5-(tert-butyl)-4-(hydroxyamino)-2-iso-propyl-4-(1-(methoxyimino)ethyl)-2,4-dihydro-3H-pyrazol-3-one] | 87 | – | –
CC1(NO)C(=O)N(c2ccc(Br)cc2)N=C1c1ccccc1 (stereo not drawn) [Compound 50, 1-(4-bromophenyl)-4-(hydroxyamino)-4-methyl-3-phenyl-1H-pyrazol-5(4H)-one] | 356 | – | –
CC1(NO)C(=O)N(c2ccccc2)N=C1c1ccccc1F (stereo not drawn) [Compound 29, 5-(2-fluorophenyl)-4-(hydroxyamino)-4-methyl-2-phenyl-2,4-dihydro-3H-pyrazol-3-one] | 58 | – | –
CO/N=C(\C)C1(NO)C(=O)N(c2ccc(Br)cc2)N=C1C(C)C (stereo not drawn) [Compound 17, 2-(4-bromophenyl)-4-(hydroxyamino)-5-iso-propyl-4-(1-(methoxyimino)ethyl)-2,4-dihydro-3H-pyrazol-3-one] | < 1 | – | –
CO/N=C(\C)C1(NO)C(=O)N(c2ccccc2)N=C1C(C)C (stereo not drawn) [Compound 16, 4-(hydroxyamino)-5-iso-propyl-4-(1-(methoxyimino)ethyl)-2-phenyl-2,4-dihydro-3H-pyrazol-3-one] | 8 | – | –
CO/N=C(\C)C1(NO)C(=O)N(C)N=C1c1ccc(C(F)(F)F)cc1 (stereo not drawn) [Compound 52, 4-(hydroxyamino)-4-(1-(methoxyimino)ethyl)-1-methyl-3-(4-(trifluoromethyl)phenyl)-1H-pyrazol-5(4H)-one] | 8 | – | –
CC(C)N1N=C(c2ccccc2Cl)C(C)(NO)C1=O (stereo not drawn) [Compound 8, 5-(2-chlorophenyl)-4-(hydroxyamino)-2-iso-propyl-4-methyl-2,4-dihydro-3H-pyrazol-3-one] | 170 | – | –
CN1N=C(c2cccc(Cl)c2)C(C)(NO)C1=O (stereo not drawn) [Compound 54, 3-(3-chlorophenyl)-4-(hydroxyamino)-1,4-dimethyl-1H-pyrazol-5(4H)-one] | 159 | – | –

Further lines, results first:

half-life at 5 μM [1] [min] | half-life at 5 μM [2] [min] | half-life at 5 μM [3] [min] | Structure (SMILES)
118 | 91 | 12 | C/C(=N\Oc1ccccc1)C1(NO)C(=O)N(C)N=C1C(C)(C)C (stereo not drawn) [Compound 119, 3-tert-Butyl-4-(hydroxyamino)-1-methyl-4-[1-(phenoxyimino)ethyl]-4,5-dihydro-1H-pyrazol-5-one]
15 | – | – | CN1N=C(c2cccc(Cl)c2Cl)C(C)(NO)C1=O (stereo not drawn) [Compound 57, 3-(2,3-dichlorophenyl)-4-(hydroxyamino)-1,4-dimethyl-1H-pyrazol-5(4H)-one]
69 | – | – | CN1N=C(c2ccccc2OC(F)(F)F)C(C)(NO)C1=O (stereo not drawn) [Compound 56, 4-(hydroxyamino)-1,4-dimethyl-3-(2-(trifluoromethoxy)phenyl)-1H-pyrazol-5(4H)-one]
< 1 | – | – | CC1=NN(C)C(=O)C1(NO)/C(C)=N/Oc1ccccc1 (stereo not drawn) [Compound 102, 4-(Hydroxyamino)-1,3-dimethyl-4-[1-(phenoxyimino)ethyl]-4,5-dihydro-1H-pyrazol-5-one]
4 | 4 | 6 | CC1=NN(C)C(=O)C1(NO)/C(C)=N/OCC(C)C (stereo not drawn) [Compound 105, 4-(Hydroxyamino)-1,3-dimethyl-4-[1-[(2-methylpropoxy)imino]ethyl]-4,5-dihydro-1H-pyrazol-5-one]
66 | 89 | 51 | COCCN(C)c1cc(C2=NN(C)C(=O)C2(C)NO)ccc1S(C)(=O)=O (stereo not drawn) [Compound 83, 4-(Hydroxyamino)-3-{4-methanesulfonyl-3-[(2-methoxyethyl)(methyl)amino]phenyl}-1,4-dimethyl-4,5-dihydro-1H-pyrazol-5-one]
19 | – | – | CN1N=C(c2ccc(Cl)cc2Cl)C(C)(NO)C1=O (stereo not drawn) [Compound 58, 3-(2,4-dichlorophenyl)-4-(hydroxyamino)-1,4-dimethyl-1H-pyrazol-5(4H)-one]
6 | – | – | CC1=NN(C)C(=O)C1(NO)c1cccc(F)c1 (stereo not drawn) [Compound 96, 4-(3-Fluorophenyl)-4-(hydroxyamino)-1,3-dimethyl-4,5-dihydro-1H-pyrazol-5-one]
4 | – | – | CC1=NN(C)C(=O)C1(NO)c1cccc(Cl)c1 (stereo not drawn) [Compound 99, 4-(3-Chlorophenyl)-4-(hydroxyamino)-1,3-dimethyl-4,5-dihydro-1H-pyrazol-5-one]
21 | – | – | COc1ccc(C2(NO)C(=O)N(C)N=C2C)cc1C (stereo not drawn) [Compound 76, 4-(Hydroxyamino)-4-(4-methoxy-3-methylphenyl)-1,3-dimethyl-4,5-dihydro-1H-pyrazol-5-one]
44 | 114 | – | CCOc1cc(F)ccc1C1=NN(C)C(=O)C1(C)NO (stereo not drawn) [Compound 62, 3-(2-ethoxy-4-fluorophenyl)-4-(hydroxyamino)-1,4-dimethyl-1H-pyrazol-5(4H)-one]
120 | – | – | CN1N=C(c2ccc(C(=O)NCC(=O)O)cc2)C(C)(NO)C1=O (stereo not drawn) [Compound 95, 2-({4-[4-(Hydroxyamino)-1,4-dimethyl-5-oxo-4,5-dihydro-1H-pyrazol-3-yl]phenyl}formamido)acetic acid]
> 360 | – | – | CO/N=C(\C)C1(NO)C(=O)N(C)N=C1C(C)C (stereo not drawn) [Compound 63, 4-(hydroxyamino)-3-isopropyl-4-(1-(methoxyimino)ethyl)-1-methyl-1H-pyrazol-5(4H)-one]
116 | – | – | COc1ccccc1C1=NN(C)C(=O)C1(C)NO (stereo not drawn) [Compound 55, 4-(hydroxyamino)-3-(2-methoxyphenyl)-1,4-dimethyl-1H-pyrazol-5(4H)-one]
3 | 7 | – | CO/N=C(\C)C1(NO)C(=O)N(c2ccccc2)N=C1Sc1ccccc1 (stereo not drawn) [Compound 128, 4-(Hydroxyamino)-4-[1(methoxyimino)ethyl]-1-phenyl-3-(phenylsulfanyl)-4,5-dihydro-1H-pyrazol-5-one]
226 | – | – | CN1N=C(c2ccc(C(C)(C)C)cc2)C(C)(NO)C1=O (stereo not drawn) [Compound 91, 3-(4-tert-Butylphenyl)-4-(hydroxyamino)-1,4-dimethyl-4,5-dihydro-1H-pyrazol-5-one]
3 | – | – | CC1=NN(C)C(=O)C1(NO)/C(C)=N/OCc1ccccc1 (stereo not drawn) [Compound 103, 4-(Hydroxyamino)-1,3-dimethyl-4-[1-(benzyloxyimino)ethyl]-4,5-dihydro-1H-pyrazol-5-one]
49 | – | – | CN1N=C(c2ccccc2C(F)(F)F)C(C)(NO)C1=O (stereo not drawn) [Compound 60, 4-(hydroxyamino)-1,4-dimethyl-3-(2-(trifluoromethyl)phenyl)-1H-pyrazol-5(4H)-one]
> 360 | – | – | CC1(NO)C(=O)N(c2ccccc2)N=C1C(F)(F)F (stereo not drawn) [Compound 61, 4-(hydroxyamino)-4-methyl-1-phenyl-3-(trifluoromethyl)-1H-pyrazol-5(4H)-one]
8 | – | – | CC1=NN(C)C(=O)C1(NO)c1ccc([S+](C)[O-])cc1 (stereo not drawn) [Compound 65, 4-(hydroxyamino)-1,3-dimethyl-4-(4-(methylsulfinyl)phenyl)-1H-pyrazaol-5(4H)-one]
